# Data taken from patent US20230332232A1, “COMPOSITIONS AND METHODS FOR DIAGNOSING AND TREATING A DYSTONIA” (Duke University, priority 2020, published 2023).
# Test system: wild-type (WT) murine embryonic fibroblasts (MEFs)
# Test: Untargeted LC/MS/MS proteomics of EVs from WT MEFs exposed 24 hours to drug, compared with untreated WT MEFs
# Assay type: cell-based, mouse
# Experimental: Methods for isolation and purification of exosomes and extracellular vesicles (EV) were extensively reviewed. Experiments were performed to arrive at a robust and reproducible protocol. The protocol used herein is that set forth in Théry et al, 2006, which is incorporated by reference for it teaching of this protocol. This protocol involves depleting serum-derived EVs from cell culture media by overnight ultracentrifugation and exchanging media for 1% FBS EV-depleted media. Media is then collected from cells following a 24-hour conditioning period and EVs are isolated by 18-hour ultracentrifugation at 100,000 g (FIG. 1A).
# EVs were isolated from media of cultured murine embryonic fibroblasts (MEFs) prepared in-house according to protocols described by Xu 2005 from DYT1 knockin mice (Tor1a^delGAG/+) (Goodchild R E, et al. (2005) Neuron. 48:923-932) and littermate wild-type (WT) controls. The cultured MEFs from the DYT1 mice were exposed for 24 hours to Ritonavir (RTV) while the MEFs from WT mice were exposed to vehicle, ISRIB, or Salubrinal (SAL). The EVs isolated from these WT cells and DYT1 were characterized by untargeted proteomics and RNA-seq to identify differentially expressed proteins and RNAs as candidate biomarkers. Experimenter and Proteomics core staff were blinded to genotype of cell cultures throughout preparation and analysis phases. EV isolation was confirmed by Western immunoblot documenting presence of the exosomal marker (TSG101) and absence of the endoplasmic reticulum (ER) marker (CANX) (FIG. 1B (Cohort 1) and FIG. 1C (Cohort 2)).
# Following the bicinchoninic acid assay (BCA) analysis and Western immunoblot of a portion of samples for QC, 11.6 μg-129.2 μg of EV protein lysates in RIPA buffer were sent to the Duke Proteomics and Metabolomics Shared Resource core facility for LC/MS/MS quantitative proteomic analysis. Samples were first normalized to 20 μg and spiked with undigested casein at a total of 40 fmol/μg, 80 fmol/μg, or 160 fmol/μg, then reduced with 10 mM dithiolthreitol for 30 minute at 80° C. and alkylated with 20 mM iodoacetamide for 30 minutes at room temperature. Next, the samples were supplemented with a final concentration of 1.2% phosphoric acid and 741 μL of S-Trap (Protifi) binding buffer (90% MeOH/100 mM […]). Proteins were trapped on the S-Trap, digested using 20 ng/μL sequencing grade trypsin (Promega) for 1 hour at 47° C., and eluted using 50 mM TEAB, followed by 0.2% FA, and lastly using 50% CAN/0.2% FA. All samples were then lyophilized to dryness and resuspended in 40 μL 1% TFA/2% acetonitrile containing 12.5 fmol/μL yeast alcohol dehydrogenase (ADH_YEAST). A QC Pool was created from 3 uL of each sample. All QC Pools were run periodically throughout the acquisition period.
# Quantitative LC/MS/MS was performed on 2 μL of each sample, using a nanoAcquity UPLC system (Waters Corp) coupled to a Thermo Orbitrap Fusion Lumos high resolution accurate mass tandem mass spectrometer (Thermo) via a nanoelectrospray ionization source. Briefly, the sample was first trapped on a Symmetry C18 20 mm×180 μm trapping column (5 μL/min at 99.9/0.1 v/v water/acetonitrile), after which the analytical separation was performed using a 1.8 μm Acquity HSS T3 C18 75 μm×250 mm column (Waters Corp.) with a 90 minute linear gradient of 5% to 30% acetonitrile with 0.1% formic acid at a flow rate of 400 nanoliters/minute (nL/min) with a column temperature of 55° C. Data collection on the Fusion Lumos mass spectrometer was performed in a data-dependent acquisition (DDA) mode of acquisition with a r=120,000 (@ m/z 200) full MS scan from m/z 375-1500 with a target AGC value of 2e5 ions. MS/MS scans were acquired at Rapid scan rate (Ion Trap) with an AGC target of 5e3 ions and a max injection time of 100 ms. The total cycle time for MS and MS/MS scans was 2 seconds. A 20 second dynamic exclusion was employed to increase depth of coverage. The total analysis cycle time for each sample injection was approximately 2 hours. […]
# [1] = EV protein P09528, Ferritin heavy chain
structure (smiles),measurement,setting,value
O=C(COc1ccc(Cl)cc1)NC1CCC(NC(=O)COc2ccc(Cl)cc2)CC1 (centres unmarked) [ISRIB],ISRIB Direction Same as dE?,EV protein Akr1b1 (P45376),yes
same,ISRIBvWT Z Score,EV protein Akr1b1 (P45376),−0.22
same,ISRIB Direction Same as dE?,EV protein Aldh2 (P47738),yes
same,ISRIBvWT Z Score,EV protein Aldh2 (P47738),−7.25
same,ISRIBvWT Z Score,EV protein Cnn3 (Q9DAW9),2.76
same,ISRIB Direction Same as dE?,EV protein Cnot1 (Q6ZQ08),yes
same,ISRIBvWT Z Score,EV protein Cnot1 (Q6ZQ08),−2.56
same,ISRIB Direction Same as dE?,EV protein Col5a1 (Q88207),yes
same,ISRIBvWT Z Score,EV protein Col5a1 (Q88207),0.06
same,ISRIB Direction Same as dE?,EV protein Copb2 (Q55029),yes
same,ISRIBvWT Z Score,EV protein Copb2 (Q55029),−1.11
same,ISRIBvWT Z Score,EV protein Cryab (P23927),0.39
same,ISRIBvWT Z Score,EV protein Cxadr (P97792),1.72
same,ISRIBvWT Z Score,EV protein D3YXG0,−2.25
same,ISRIB Direction Same as dE?,EV protein Dars (Q922B2),yes
same,ISRIBvWT Z Score,EV protein Dars (Q922B2),−1.13
same,ISRIB Direction Same as dE?,EV protein Dctn2 (Q99KJ8),yes
same,ISRIBvWT Z Score,EV protein Dctn2 (Q99KJ8),−0.53
same,ISRIB Direction Same as dE?,EV protein Ddx3x (Q62167),yes
same,ISRIBvWT Z Score,EV protein Ddx3x (Q62167),−1.08
same,ISRIB Direction Same as dE?,EV protein Ddx5 (Q61656),yes
same,ISRIBvWT Z Score,EV protein Ddx5 (Q61656),−0.92
same,ISRIB Direction Same as dE?,EV protein Ddx39b (Q9Z1N5),yes
same,ISRIBvWT Z Score,EV protein Ddx39b (Q9Z1N5),−1.12
same,ISRIB Direction Same as dE?,EV protein Dhx9 (Q70133),yes
same,ISRIBvWT Z Score,EV protein Dhx9 (Q70133),−1.27
same,ISRIB Direction Same as dE?,EV protein Dhx15 (Q35286),yes
same,ISRIBvWT Z Score,EV protein Dhx15 (Q35286),−1.19
same,ISRIBvWT Z Score,EV protein Esyt1 (Q3U7R1),0.18
same,ISRIB Direction Same as dE?,EV protein Exoc4 (Q35382),yes
same,ISRIBvWT Z Score,EV protein Exoc4 (Q35382),−1.51
same,ISRIBvWT Z Score,EV protein Fth1 P09528,−3.46
same,ISRIBvWT Z Score,EV protein Fus (P56959),0.85
same,ISRIBvWT Z Score,EV protein Gsto1 (Q09131),0.04
same,ISRIB Direction Same as dE?,EV protein Hist1h3a (P68433),yes
same,ISRIBvWT Z Score,EV protein Hist1h3a (P68433),−0.97
same,ISRIB Direction Same as dE?,EV protein Hnrnpf (Q9Z2X1),yes
same,ISRIBvWT Z Score,EV protein Hnrnpf (Q9Z2X1),−0.18
same,ISRIBvWT Z Score,EV protein Hnrnph1 (Q35737),2.47
same,ISRIB Direction Same as dE?,EV protein Idh2 (P54071),yes
same,ISRIBvWT Z Score,EV protein Idh2 (P54071),−2.01
same,ISRIBvWT Z Score,EV protein Impa1 (Q55023),1.73
same,ISRIBvWT Z Score,EV protein Ipo7 (Q9EPL8),0.30
same,ISRIB Direction Same as dE?,EV protein Ipo11 (Q8K2V6),yes
same,ISRIBvWT Z Score,EV protein Ipo11 (Q8K2V6),−1.97
same,ISRIBvWT Z Score,EV protein Itgb3 (Q54890),0.14
same,ISRIBvWT Z Score,EV protein Itm2b Q89051,−2.13
same,ISRIB Direction Same as dE?,EV protein Itpa (Q9D892),yes
same,ISRIBvWT Z Score,EV protein Itpa (Q9D892),−1.25
same,ISRIB Direction Same as dE?,EV protein Kpna4 (Q35343),yes
same,ISRIBvWT Z Score,EV protein Kpna4 (Q35343),−3.18
same,ISRIB Direction Same as dE?,EV protein Lipg (Q9WVG5),yes
same,ISRIBvWT Z Score,EV protein Lipg (Q9WVG5),−2.47
same,ISRIB Direction Same as dE?,EV protein Ltbp1 (Q8CG19),yes
same,ISRIBvWT Z Score,EV protein Ltbp1 (Q8CG19),2.17
same,ISRIB Direction Same as dE?,EV protein Mcm2 (P97310),yes
same,ISRIBvWT Z Score,EV protein Mcm2 (P97310),−2.10
same,ISRIBvWT Z Score,EV protein Mdk (P12025),1.33
same,ISRIB Direction Same as dE?,EV protein Mtap (Q9CQ65),yes
same,ISRIBvWT Z Score,EV protein Mtap (Q9CQ65),−0.85
same,ISRIBvWT Z Score,EV protein Myo18a,2.27
same,ISRIBvWT Z Score,EV protein Nrbp1 (Q99J45),0.18
same,ISRIBvWT Z Score,EV protein Otub1 (Q7TQ..),2.26
same,ISRIB Direction Same as dE?,EV protein Otub1 (Q7TQB),yes
same,ISRIBvWT Z Score,EV protein Otub1 (Q7TQB),−2.26
same,ISRIB Direction Same as dE?,[1],yes
same,ISRIBvWT Z Score,[1],−3.46
same,ISRIB Direction Same as dE?,"EV protein P27612, Phospholipase A-2-activating protein",yes
